Source: US20110160175A1, “18,21-Didesoxymacbecin Derivatives for the Treatment of Cancer” (priority 2006, published 2011)

Experiments:
Hsp90 = Hsp90 (Homo sapiens, UniProt P07900); settings: cited from earlier work
[1] = system: panel of human tumour cell lines; test: Monolayer proliferation assay, mean IC70 across the cell line panel; type: cell-based; settings: geometric mean of all replicates across the 6 cell lines; concentration inhibiting cell growth by 70%
Description: In vitro evaluation of compounds for anticancer activity in a panel of human tumour cell lines in a monolayer proliferation assay were carried out at the Oncotest Testing Facility, Institute for Experimental Oncology, Oncotest GmbH, Freiburg.
The Oncotest cell lines were established from human tumor xenografts as described by Roth et al., (1999). The origin of the donor xenografts was described by Fiebig at al., (1999). Other cell lines were either obtained from the NCl (DU145, MCF-7) or purchased from DSMZ, Braunschweig, Germany.
All cell lines, unless otherwise specified, were grown at 37° C. in a humidified atmosphere (95% air, 5% CO2) in a ‘ready-mix’ medium containing RPMI 1640 medium, 10% fetal calf serum, and 0.1 mg/mL gentamicin (PAA, Cölbe, Germany). […]
Briefly, cells were harvested from exponential phase cultures by trypsinization, counted and plated in 96 well flat-bottomed microtitre plates at a cell density dependent on the cell line (5-10.000 viable cells/well). […] After thawing the plates, fluorescence was measured using the Cytofluor 4000 microplate reader (excitation 530 nm, emission 620 nm), giving a direct relationship to the total number of viable cells. Growth inhibition may be expressed as treated/control×100 (% T/C). […]

| SMILES | binding affinity to Hsp90, fold greater than 17-AAG (Hsp90; relative to 17-AAG) [fold] | binding affinity to Hsp90, fold greater than geldanamycin (Hsp90; relative to geldanamycin) [fold] | average IC70 value across the cell-line panel [1] [µg/mL] |
| --- | --- | --- | --- |
| CO[C@H]1C[C@H](C)Cc2cc(O)cc(c2)NC(=O)/C=C/CC[C@H](OC)[C@@H](OC(N)=O)/C(C)=C/[C@H](C)[C@H]1O [KOSN1559] | 8 | 4 | – |
| CO[C@H]1[C@@H](OC)C[C@H](C)[C@@H](OC)C2=CC(=O)C=C(NC(=O)/C(C)=C/C=C\[C@H](C)[C@@H](OC(N)=O)/C(C)=C/[C@@H]1C)C2=O [macbecin] | – | – | 0.21 |
